Source: patent US20250368666A1, “INDAZOLE COMPOUNDS” (TYRA BIOSCIENCES, INC., priority 2022, published 2025)

Columns and labels:
[1] = tested on: HuH7 cell line (FGF19 amplification); assay: Cancer cell line cell viability assay (Cell Titer-Glo), 120 hr; format: cell-based; conditions: Homo sapiens, Huh-7
Outline: (§1)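 ATP-based luminescence (Cell Titer-Glo 2.0) measured viability after 72 h (KG-1, RT112/84) or 120 h (MDA-MB-453, HuH7) compound exposure. Dosing was nine 4-fold steps starting at 3 μM, in triplicate, on overnight-plated cells. IC50 came from a variable-slope 4-parameter fit of % DMSO control.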

[2] = tested on: KG-1 cell line (FGFR 1-fusion); assay: Cancer cell line cell viability assay (Cell Titer-Glo), 72 hr; format: cell-based; conditions: Homo sapiens, KG-1, KG-1 cell line (FGFR1-fusion)
Outline: as §1

[3] = tested on: KATO-III cell line (FGFR2 amplification); assay: as above; format: cell-based; conditions: Homo sapiens, KATO III
Outline: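 Luminescent ATP read-out (Cell Titer-Glo 2.0) after compound exposure, normalised to DMSO-only wells. Dosing: 9 concentrations, 4-fold steps, top 3 μM, triplicates. IC50 derived by log(inhibitor) vs. response 4-parameter fit.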

[4] = tested on: RT112/84 cell line (FGFR3-fusion); assay: as above; format: cell-based; conditions: Homo sapiens, RT112/84, RT112/84 cell line (FGFR3-fusion)
Outline: as §1

FGFR1 = target: T1, FGFR1 (Homo sapiens, UniProt P11362); assay: Kinase binding assay (kinase-tagged T7 phage, affinity beads, qPCR), Kd; conditions: read-out: FGFR1 (Kd nM)
T1 construct: made in house; host or cells: E. coli (BL21-derived), T7 phage
T1 sequence (P11362 22-822): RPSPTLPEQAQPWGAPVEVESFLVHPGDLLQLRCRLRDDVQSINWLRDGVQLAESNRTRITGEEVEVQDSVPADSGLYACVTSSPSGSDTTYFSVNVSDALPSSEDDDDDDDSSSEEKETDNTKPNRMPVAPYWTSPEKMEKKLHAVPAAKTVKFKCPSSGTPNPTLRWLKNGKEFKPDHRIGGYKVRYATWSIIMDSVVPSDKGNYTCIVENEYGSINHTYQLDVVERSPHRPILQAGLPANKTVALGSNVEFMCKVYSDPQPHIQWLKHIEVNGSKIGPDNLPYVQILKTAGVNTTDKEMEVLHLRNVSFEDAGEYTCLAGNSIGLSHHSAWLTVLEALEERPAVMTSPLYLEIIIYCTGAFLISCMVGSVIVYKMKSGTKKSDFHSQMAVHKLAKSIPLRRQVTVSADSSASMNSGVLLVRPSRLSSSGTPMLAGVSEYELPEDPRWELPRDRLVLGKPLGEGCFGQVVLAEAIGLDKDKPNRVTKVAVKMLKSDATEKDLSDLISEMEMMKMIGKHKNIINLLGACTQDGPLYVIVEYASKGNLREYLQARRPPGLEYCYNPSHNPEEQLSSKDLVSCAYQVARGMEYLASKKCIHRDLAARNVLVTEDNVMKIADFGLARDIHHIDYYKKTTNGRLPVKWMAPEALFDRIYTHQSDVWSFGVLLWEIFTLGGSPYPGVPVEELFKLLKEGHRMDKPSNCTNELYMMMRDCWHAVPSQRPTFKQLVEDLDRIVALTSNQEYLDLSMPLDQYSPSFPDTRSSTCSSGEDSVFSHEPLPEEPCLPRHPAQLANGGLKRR
Outline: (§2)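 T7 phage displaying each kinase, grown in a BL21-derived E. coli host at 32° C until lysis, competed with test compound for biotinylated ligand immobilised on streptavidin beads. Bead-bound kinase was eluted and quantified by qPCR. Kd came from an 11-point 3-fold dilution series fitted to the Hill equation with slope fixed at −1.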

FGFR4 = target: T2, FGFR4 (Homo sapiens, UniProt P22455); assay: as above; conditions: read-out: FGFR4 (Kd nM)
T2 construct: made in house; host or cells: E. coli (BL21-derived), T7 phage
T2 sequence (P22455 22-802): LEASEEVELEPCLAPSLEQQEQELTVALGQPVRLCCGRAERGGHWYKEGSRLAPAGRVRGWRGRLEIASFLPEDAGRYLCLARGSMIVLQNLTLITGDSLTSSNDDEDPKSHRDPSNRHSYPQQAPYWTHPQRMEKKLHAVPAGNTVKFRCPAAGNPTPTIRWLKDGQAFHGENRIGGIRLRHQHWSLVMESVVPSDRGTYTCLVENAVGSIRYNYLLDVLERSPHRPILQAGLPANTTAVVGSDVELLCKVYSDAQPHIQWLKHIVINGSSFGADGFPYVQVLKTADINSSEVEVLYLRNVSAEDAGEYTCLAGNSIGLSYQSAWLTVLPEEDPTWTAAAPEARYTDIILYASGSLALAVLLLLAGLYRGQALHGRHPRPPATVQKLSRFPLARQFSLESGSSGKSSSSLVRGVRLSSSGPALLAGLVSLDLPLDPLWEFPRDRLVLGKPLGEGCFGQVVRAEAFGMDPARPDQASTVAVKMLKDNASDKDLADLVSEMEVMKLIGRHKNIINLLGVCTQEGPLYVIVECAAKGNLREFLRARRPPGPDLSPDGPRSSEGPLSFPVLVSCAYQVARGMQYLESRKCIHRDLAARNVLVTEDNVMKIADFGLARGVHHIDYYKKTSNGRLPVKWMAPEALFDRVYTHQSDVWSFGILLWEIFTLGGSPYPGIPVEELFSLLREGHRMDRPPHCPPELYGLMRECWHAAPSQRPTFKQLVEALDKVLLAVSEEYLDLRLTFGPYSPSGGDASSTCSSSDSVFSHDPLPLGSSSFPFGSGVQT
Outline: as §2

FGFR3 (V555M) = target: T3, FGFR3 (V555M) (Homo sapiens, UniProt P22607, V555M); assay: as above; conditions: V555M mutant; read-out: FGFR3 (V555M) (Kd nM)
T3 construct: made in house; host or cells: E. coli (BL21-derived), T7 phage
T3 sequence (P22607 23-806 V555M): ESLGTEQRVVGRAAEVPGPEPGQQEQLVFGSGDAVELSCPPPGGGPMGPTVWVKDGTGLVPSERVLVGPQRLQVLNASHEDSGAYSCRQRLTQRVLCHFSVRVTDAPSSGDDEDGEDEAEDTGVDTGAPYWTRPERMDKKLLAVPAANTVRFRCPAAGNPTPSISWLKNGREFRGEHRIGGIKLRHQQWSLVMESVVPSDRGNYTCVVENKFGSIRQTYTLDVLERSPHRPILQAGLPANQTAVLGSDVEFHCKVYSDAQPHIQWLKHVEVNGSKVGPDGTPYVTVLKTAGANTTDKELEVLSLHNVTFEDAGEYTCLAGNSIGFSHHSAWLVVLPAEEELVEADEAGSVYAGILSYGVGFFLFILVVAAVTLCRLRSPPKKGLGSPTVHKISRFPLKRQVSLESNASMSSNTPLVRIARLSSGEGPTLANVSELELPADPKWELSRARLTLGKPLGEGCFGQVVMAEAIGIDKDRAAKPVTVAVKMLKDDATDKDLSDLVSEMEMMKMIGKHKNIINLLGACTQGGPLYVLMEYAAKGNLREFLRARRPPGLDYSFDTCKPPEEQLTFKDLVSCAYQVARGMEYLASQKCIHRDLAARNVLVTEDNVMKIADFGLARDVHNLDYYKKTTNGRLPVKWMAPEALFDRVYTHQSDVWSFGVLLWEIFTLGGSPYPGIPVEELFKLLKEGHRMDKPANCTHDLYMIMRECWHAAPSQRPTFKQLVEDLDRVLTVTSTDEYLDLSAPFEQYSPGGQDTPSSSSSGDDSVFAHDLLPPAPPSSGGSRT
Outline: as §2

FGFR2 = target: T4, FGFR2 (Homo sapiens, UniProt P21802); assay: as above; conditions: read-out: FGFR2 (Kd nM)
T4 construct: made in house; host or cells: E. coli (BL21-derived), T7 phage
T4 sequence (P21802 22-821): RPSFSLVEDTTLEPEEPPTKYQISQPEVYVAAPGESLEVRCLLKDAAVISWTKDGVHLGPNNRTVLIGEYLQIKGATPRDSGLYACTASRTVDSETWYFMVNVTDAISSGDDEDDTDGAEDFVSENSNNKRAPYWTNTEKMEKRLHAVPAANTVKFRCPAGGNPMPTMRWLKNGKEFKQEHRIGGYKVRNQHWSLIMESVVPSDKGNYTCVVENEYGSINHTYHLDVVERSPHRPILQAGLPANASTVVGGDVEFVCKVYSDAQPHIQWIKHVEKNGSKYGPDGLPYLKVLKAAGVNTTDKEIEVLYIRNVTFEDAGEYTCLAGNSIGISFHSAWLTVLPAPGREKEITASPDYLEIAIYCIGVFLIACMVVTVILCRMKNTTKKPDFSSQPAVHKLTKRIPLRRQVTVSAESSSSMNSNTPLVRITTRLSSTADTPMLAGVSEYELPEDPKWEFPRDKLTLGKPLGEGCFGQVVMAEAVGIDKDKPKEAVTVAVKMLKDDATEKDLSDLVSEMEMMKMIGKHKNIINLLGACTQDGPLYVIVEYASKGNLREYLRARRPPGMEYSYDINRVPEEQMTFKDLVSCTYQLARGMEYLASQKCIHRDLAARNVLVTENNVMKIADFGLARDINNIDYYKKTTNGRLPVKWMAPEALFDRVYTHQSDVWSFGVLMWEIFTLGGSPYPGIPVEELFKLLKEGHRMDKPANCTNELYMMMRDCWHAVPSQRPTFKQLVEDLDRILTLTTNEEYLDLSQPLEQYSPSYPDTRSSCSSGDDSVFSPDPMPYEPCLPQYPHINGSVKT
Outline: as §2

FGFR3 = target: T5, FGFR3 (Homo sapiens, UniProt P22607); assay: as above; conditions: read-out: FGFR3 (Kd nM)
T5 construct: made in house; host or cells: E. coli (BL21-derived), T7 phage
T5 sequence (P22607 23-806): as the sequence (P22607 23-806 V555M) above, with M533V counted along it
Outline: as §2

Compound	IC50 [1] [µM]	IC50 [2] [µM]	IC50 [3] [µM]	IC50 [4] [µM]	Kd (FGFR1) [nM]	Kd (FGFR4) [nM]	Kd (FGFR3 (V555M)) [nM]	Kd (FGFR2) [nM]	Kd (FGFR3) [nM]
COc1cc2[nH]nc(-c3cnc(N4CC(C)(N[C@H]5CCOC5)C4)c(C#N)c3)c2cc1O[C@H](C)c1c(Cl)cncc1Cl [Example 24, 5-(5-((R)-1-(3,5-dichloropyridin-4-yl)ethoxy)-6-methoxy-1H-indazol-3-yl)-2-(3-methyl-3-(((S)-tetrahydrofuran-3-yl)amino)azetidin-1-yl)nicotinonitrile]	0.0001 to 0.05	0.05 to 0.2	0.05 to 0.2	0.0001 to 0.05	1 to 50	1 to 50	1 to 50	1 to 50	1 to 50
COc1cc2[nH]nc(-c3cnc(N4CC(C)(N[C@@H]5CCOC5)C4)c(C#N)c3)c2cc1O[C@H](C)c1c(Cl)cncc1Cl [Example 25, 5-(5-((R)-1-(3,5-dichloropyridin-4-yl)ethoxy)-6-methoxy-1H-indazol-3-yl)-2-(3-methyl-3-(((R)-tetrahydrofuran-3-yl)amino)azetidin-1-yl)nicotinonitrile]	0.0001 to 0.05	0.05 to 0.2	0.05 to 0.2	0.0001 to 0.05	1 to 50	1 to 50	1 to 50	1 to 50	1 to 50
COc1cc2[nH]nc(-c3cnc(N4CC(C)(N5CCC5)C4)c(C#N)c3)c2cc1O[C@H](C)c1c(Cl)cncc1Cl [Example 26, (R)-5-(5-(1-(3,5-dichloropyridin-4-yl)ethoxy)-6-methoxy-1H-indazol-3-yl)-2-(3′-methyl-[1,3′-biazetidin]-1′-yl)nicotinonitrile]	0.0001 to 0.05	0.0001 to 0.05	0.05 to 0.2	0.0001 to 0.05	1 to 50	1 to 50	1 to 50	1 to 50	1 to 50
C[C@@H](Oc1ccc2[nH]nc(-c3cnc(N4CC(C)(N5CCC5)C4)c(C#N)c3)c2c1)c1c(Cl)cncc1Cl [Example 28, (R)-5-(5-(1-(3,5-dichloropyridin-4-yl)ethoxy)-1H-indazol-3-yl)-2-(3′-methyl-[1,3′-biazetidin]-1′-yl)nicotinonitrile]	0.0001 to 0.05	0.05 to 0.2	0.05 to 0.2	0.0001 to 0.05	1 to 50	1 to 50	1 to 50	1 to 50	1 to 50
C[C@@H](Oc1ccc2[nH]nc(-c3cnc(N4CC(C)(N5CCOCC5)C4)c(C#N)c3)c2c1)c1c(Cl)cncc1Cl [Example 34, 5-[5-[(1R)-1-(3,5-dichloro-4-pyridyl)ethoxy]-1H-indazol-3-yl]-2-(3-methyl-3-morpholino-azetidin-1-yl)pyridine-3-carbonitrile]	0.0001 to 0.05	0.2 to 1	0.2 to 1	0.05 to 0.2	50 to 300	1 to 50	1 to 50	50 to 300	1 to 50

More lines, now with the values ahead:

IC50 [1] [µM]	IC50 [2] [µM]	IC50 [3] [µM]	IC50 [4] [µM]	Kd (FGFR1) [nM]	Kd (FGFR4) [nM]	Kd (FGFR3 (V555M)) [nM]	Kd (FGFR2) [nM]	Kd (FGFR3) [nM]	Compound
0.05 to 0.2	0.2 to 1	0.2 to 1	0.05 to 0.2	1 to 50	1 to 50	1 to 50	50 to 300	1 to 50	C[C@@H](Oc1ccc2[nH]nc(-c3cnc(N4CC(C)(NCC5CC5)C4)c(C#N)c3)c2c1)c1c(Cl)cncc1Cl [Example 27, 2-[3-(Cyclopropylmethylamino)-3-methyl-azetidin-1-yl]-5-[5-[(1R)-1-(3,5-dichloro-4-pyridyl)ethoxy]-1H-indazol-3-yl]pyridine-3-carbonitrile]
0.0001 to 0.05	0.2 to 1	0.05 to 0.2	0.05 to 0.2	50 to 300	1 to 50	1 to 50	1 to 50	1 to 50	C[C@@H](Oc1ccc2[nH]nc(-c3cnc(N4CC(C)(N[C@@H]5CCOC5)C4)c(C#N)c3)c2c1)c1c(Cl)cncc1Cl [Example 33, 5-(5-((R)-1-(3,5-dichloropyridin-4-yl)ethoxy)-1H-indazol-3-yl)-2-(3-methyl-3-(((R)-tetrahydrofuran-3-yl)amino)azetidin-1-yl)nicotinonitrile]
